The supplement of paper PMC10307832

Experiments:
Assay in all cases: relative viability (nuclei count vs DMSO), 5 days (fraction); higher = more cells survive
[1] = compound: Cc1ccc(C(=O)N(CCCN)[C@@H](c2nc3cc(Cl)ccc3c(=O)n2Cc2ccccc2)C(C)C)cc1 [Ispinesib] + O=C(CCCCCCC(=O)Nc1ccccc1)NO [Vorinostat] (partner 1 µM)
Summary of the method: (§1)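 Relative viability equals treated-well nuclei counts divided by vehicle-well nuclei counts. Counts came from 4× images of lung cancer cell lines grown in 1536-well plates for 5 days after pin-tool dosing on the day after seeding. Dosing used one drug alone or a fixed anchor-drug dose plus five library-drug doses (not always all listed) in √10 steps, and values are medians of duplicate plates.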

[2] = compound: C[C@]1(O)C[C@@H](c2nc(-c3ccc4ccc(-c5ccccc5)nc4c3)c3c(N)nccn32)C1 [Linsitinib] + Cc1nc(Nc2ncc(C(=O)Nc3c(C)cccc3Cl)s2)cc(N2CCN(CCO)CC2)n1 [Dasatinib] (partner 0.075 µM)
Summary of the method: as §1

[3] = compound: C[C@]1(O)C[C@@H](c2nc(-c3ccc4ccc(-c5ccccc5)nc4c3)c3c(N)nccn32)C1 [Linsitinib] + CC(=O)Nc1cccc(-n2c(=O)n(C3CC3)c(=O)c3c(Nc4ccc(I)cc4F)n(C)c(=O)c(C)c32)c1 [Trametinib] (partner 0.02 µM)
Summary of the method: as §1

[4] = compound: C[C@]1(O)C[C@@H](c2nc(-c3ccc4ccc(-c5ccccc5)nc4c3)c3c(N)nccn32)C1 [Linsitinib] + Cc1nc(NC(=O)N2CCC[C@H]2C(N)=O)sc1-c1ccnc(C(C)(C)C(F)(F)F)c1 [Alpelisib] (partner 2 µM)
Summary of the method: as §1

Cell Line	relative viability ([1]; first compound 0.001 µM)	relative viability ([1]; first compound 0.003162 µM)	relative viability ([1]; first compound 0.01 µM)	relative viability ([1]; first compound 0.03162 µM)	relative viability ([1]; first compound 0.1 µM)	relative viability ([2]; first compound 0.01 µM)	relative viability ([2]; first compound 0.03162 µM)	relative viability ([2]; first compound 0.1 µM)	relative viability ([2]; first compound 0.3162 µM)	relative viability ([2]; first compound 1 µM)	relative viability ([3]; first compound 0.01 µM)	relative viability ([3]; first compound 0.03162 µM)	relative viability ([3]; first compound 0.1 µM)	relative viability ([3]; first compound 0.3162 µM)	relative viability ([3]; first compound 1 µM)	relative viability ([4]; first compound 0.01 µM)	relative viability ([4]; first compound 0.03162 µM)	relative viability ([4]; first compound 0.1 µM)	relative viability ([4]; first compound 0.3162 µM)	relative viability ([4]; first compound 1 µM)
NCI-H1755	0.726	0.789	0.937	0.636	0.419	0.428	0.431	0.427	0.363	0.229	0.731	0.783	0.76	0.715	0.721	0.938	0.875	0.961	0.78	0.896
LOU-NH91	0.91	1.04	0.939	0.247	0.236	0.561	0.612	0.545	0.645	0.456	0.766	0.727	0.779	0.56	0.715	0.743	0.656	0.7	0.76	0.602
EMC-BAC-2	0.539	0.745	0.419	0.147	0.365	0.318	0.323	0.289	0.445	0.197	0.93	0.939	0.82	0.575	0.593	0.7	0.689	0.748	0.613	0.667
NCI-H2023	0.646	0.563	0.43	0.237	0.162	0.472	0.373	0.528	0.29	0.218	0.487	0.6	0.479	0.206	0.293	0.533	0.426	0.502	0.425	0.392
EKVX	0.741	0.78	0.693	0.623	0.561	0.603	0.625	0.532	0.513	0.5	–	0.321	0.436	0.234	0.294	0.842	0.848	0.856	0.901	0.756
NCI-H2085	0.773	0.762	0.864	0.594	0.429	0.275	0.257	0.22	0.246	0.23	0.557	0.644	0.503	0.449	0.514	0.886	1.12	1.06	0.888	0.922
NCI-H3122	1	1.09	1.07	0.855	0.119	0.846	0.808	0.765	0.218	0.514	0.259	0.213	0.253	–	0.232	0.85	0.763	0.768	0.699	0.758
HCC-827	0.827	0.999	0.861	0.649	0.696	0.398	0.389	0.311	0.597	0.423	0.526	0.616	0.522	–	0.602	0.995	1.02	0.967	–	0.915
HARA	0.519	0.567	0.528	0.477	0.389	0.278	0.213	0.294	–	0.204	0.448	0.809	0.878	–	0.623	0.802	0.768	0.732	0.409	0.716
NCI-H441	0.838	0.909	0.91	0.548	0.256	0.484	0.55	0.614	0.349	0.303	0.537	0.44	0.339	0.215	0.231	0.863	0.839	0.804	0.539	0.629
SK-MES-1	1.31	1.19	1.08	0.233	0.221	0.297	0.351	0.257	0.323	0.289	0.516	0.484	0.556	0.503	0.521	0.9	1.02	0.907	0.814	0.854
HCC-15	0.861	0.976	0.968	0.852	0.344	0.62	0.559	0.519	–	0.35	0.376	0.376	0.286	0.264	0.287	0.918	0.887	0.952	0.582	0.775
EPLC-272H	0.351	0.635	0.322	0.128	0.341	0.359	0.407	–	–	0.261	0.245	0.25	0.296	–	0.26	0.909	0.942	0.87	–	0.925
NCI-H2009	0.859	0.732	0.746	0.72	0.213	0.285	0.262	0.274	–	0.2	0.275	0.266	0.256	0.307	0.242	1.17	1.17	1.2	1.03	1.13
NCI-H661	0.869	0.804	0.849	0.302	0.19	0.899	0.815	0.946	0.722	0.768	0.657	0.616	0.533	0.598	0.548	0.593	0.539	0.46	0.667	0.449
NCI-H520	0.776	0.71	0.662	0.268	0.234	0.191	0.192	0.2	–	0.195	0.618	0.64	0.641	–	0.712	0.873	0.762	0.97	–	0.962
NCI-H2405	1.07	1.19	1.23	0.622	0.519	0.189	0.207	0.202	0.34	0.18	0.66	0.6	0.607	0.708	0.401	0.86	0.625	1.04	0.632	0.698

Cell Line	relative viability ([1]; first compound 0.001 µM)	relative viability ([1]; first compound 0.003162 µM)	relative viability ([1]; first compound 0.01 µM)	relative viability ([1]; first compound 0.03162 µM)	relative viability ([1]; first compound 0.1 µM)	relative viability ([2]; first compound 0.01 µM)	relative viability ([2]; first compound 0.03162 µM)	relative viability ([2]; first compound 0.1 µM)	relative viability ([2]; first compound 0.3162 µM)	relative viability ([2]; first compound 1 µM)	relative viability ([3]; first compound 0.01 µM)	relative viability ([3]; first compound 0.03162 µM)	relative viability ([3]; first compound 0.1 µM)	relative viability ([3]; first compound 0.3162 µM)	relative viability ([3]; first compound 1 µM)	relative viability ([4]; first compound 0.01 µM)	relative viability ([4]; first compound 0.03162 µM)	relative viability ([4]; first compound 0.1 µM)	relative viability ([4]; first compound 0.3162 µM)	relative viability ([4]; first compound 1 µM)
LCLC-97TM1	0.645	0.847	1.04	0.289	0.0855	0.842	0.64	0.842	0.602	0.614	0.215	0.174	0.156	0.171	0.196	0.237	0.267	0.189	0.215	0.206
NCI-H727	1.24	1.31	–	1.05	1.06	0.421	0.274	0.372	0.252	0.252	0.349	0.403	0.317	0.358	0.29	0.489	0.394	0.564	0.378	0.278
NCI-H2228	0.742	0.786	0.722	0.341	0.242	0.48	0.483	0.52	0.421	0.387	0.569	0.595	0.378	0.347	0.363	0.594	0.746	0.723	0.493	0.586
LK-2	0.247	0.348	0.343	0.195	0.24	0.281	0.328	0.212	0.228	0.197	0.892	0.626	0.599	0.39	0.643	1.04	1.12	1.33	0.804	1.11
PC-3 [JPC-3]	0.776	0.977	0.794	0.498	0.435	1	0.912	1.06	0.991	0.98	0.691	0.766	0.668	0.591	0.545	1.03	1.05	1.03	1.02	0.924
NCI-H596	0.58	0.741	0.642	0.609	0.35	0.643	0.673	0.625	0.647	0.437	0.705	0.715	0.74	0.827	0.732	0.508	0.532	0.406	0.418	0.443
NCI-H460	1.37	1.03	1.1	0.237	0.107	0.578	0.393	0.441	0.34	0.146	0.136	0.137	0.196	–	0.0792	0.46	0.325	0.475	0.329	0.351
NCI-H647	0.637	0.57	0.497	0.333	0.141	0.206	0.203	0.165	–	0.158	0.478	0.509	0.436	0.338	0.351	1.14	1.19	0.914	–	0.951
NCI-H838	0.738	0.726	0.739	0.625	0.238	0.273	0.258	0.267	0.227	0.225	0.464	0.498	0.435	0.333	0.369	1	0.979	1.05	0.853	0.755
PC-14	0.773	0.569	0.343	0.103	0.134	0.285	0.274	0.282	0.202	0.19	0.684	0.681	0.618	0.699	0.575	0.799	0.89	0.968	0.792	0.837
NCI-H358	0.977	0.752	0.744	0.703	0.196	0.162	0.167	0.159	0.148	0.142	0.15	0.148	0.13	0.118	0.0976	0.794	0.804	0.734	0.471	0.479
NCI-H1915	0.532	0.539	0.525	0.238	0.101	0.306	0.351	0.299	0.331	0.234	0.292	0.332	0.292	0.308	0.268	1.08	1.15	1.14	0.913	0.878
201T	1	1.01	1.02	0.908	0.28	0.604	0.581	0.531	0.725	0.439	0.7	0.736	0.702	0.72	0.753	1.01	1.04	1.1	1.06	1.04
NCI-H1437	0.967	0.837	0.922	0.878	0.219	0.352	0.308	0.463	0.505	0.463	0.518	0.518	0.519	0.34	0.352	0.977	0.955	0.986	0.901	0.903
A-427	0.878	0.953	0.981	0.385	0.217	0.712	0.78	0.723	–	0.631	0.779	0.69	0.707	–	0.626	1.11	1.02	1.05	–	0.997
HCC-366	0.353	0.512	0.351	0.216	0.0545	0.644	0.606	0.488	0.543	0.174	0.369	0.381	0.402	0.317	0.202	0.416	0.239	0.446	0.242	0.201
